US20230120564A1, “PYRIDO[3,4-D]PYRIMIDINE DERIVATIVE AND THERAPEUTIC PHARMACEUTIC COMPOSITION COMPRISING SAME” (KOREA INSTITUTE OF SCIENCE AND TECHNOLOGY, priority 2020, published 2023)

Legend:
Assay in all cases: full kinase panel biochemical assay
[1] = molecular target: MYLK3 (Homo sapiens, UniProt Q32MK0); details: single concentration of 1 μM; read-out: percent inhibition of MYLK3
How it was run: (§1)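 Values are % inhibition measured in a biochemical full kinase panel. Compound was tested at one concentration only, 1 μM, and residual activity (%) was derived per kinase.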

[2] = molecular target: GCK/MAP4K2 (Homo sapiens, UniProt Q12851); details: single concentration of 1 μM; read-out: percent inhibition of GCK/MAP4K2
How it was run: as §1

[3] = molecular target: RIPK4 (Homo sapiens, UniProt P57078); details: single concentration of 1 μM; read-out: percent inhibition of RIPK4
How it was run: as §1

[4] = molecular target: ARAF (Homo sapiens, UniProt P10398); details: single concentration of 1 μM; read-out: percent inhibition of ARAF
How it was run: as §1

[5] = molecular target: FLT4/VEGFR3 (Homo sapiens, UniProt P35916); details: single concentration of 1 μM; read-out: percent inhibition of FLT4/VEGFR3
Sequence of FLT4/VEGFR3 (P35916 25-1363): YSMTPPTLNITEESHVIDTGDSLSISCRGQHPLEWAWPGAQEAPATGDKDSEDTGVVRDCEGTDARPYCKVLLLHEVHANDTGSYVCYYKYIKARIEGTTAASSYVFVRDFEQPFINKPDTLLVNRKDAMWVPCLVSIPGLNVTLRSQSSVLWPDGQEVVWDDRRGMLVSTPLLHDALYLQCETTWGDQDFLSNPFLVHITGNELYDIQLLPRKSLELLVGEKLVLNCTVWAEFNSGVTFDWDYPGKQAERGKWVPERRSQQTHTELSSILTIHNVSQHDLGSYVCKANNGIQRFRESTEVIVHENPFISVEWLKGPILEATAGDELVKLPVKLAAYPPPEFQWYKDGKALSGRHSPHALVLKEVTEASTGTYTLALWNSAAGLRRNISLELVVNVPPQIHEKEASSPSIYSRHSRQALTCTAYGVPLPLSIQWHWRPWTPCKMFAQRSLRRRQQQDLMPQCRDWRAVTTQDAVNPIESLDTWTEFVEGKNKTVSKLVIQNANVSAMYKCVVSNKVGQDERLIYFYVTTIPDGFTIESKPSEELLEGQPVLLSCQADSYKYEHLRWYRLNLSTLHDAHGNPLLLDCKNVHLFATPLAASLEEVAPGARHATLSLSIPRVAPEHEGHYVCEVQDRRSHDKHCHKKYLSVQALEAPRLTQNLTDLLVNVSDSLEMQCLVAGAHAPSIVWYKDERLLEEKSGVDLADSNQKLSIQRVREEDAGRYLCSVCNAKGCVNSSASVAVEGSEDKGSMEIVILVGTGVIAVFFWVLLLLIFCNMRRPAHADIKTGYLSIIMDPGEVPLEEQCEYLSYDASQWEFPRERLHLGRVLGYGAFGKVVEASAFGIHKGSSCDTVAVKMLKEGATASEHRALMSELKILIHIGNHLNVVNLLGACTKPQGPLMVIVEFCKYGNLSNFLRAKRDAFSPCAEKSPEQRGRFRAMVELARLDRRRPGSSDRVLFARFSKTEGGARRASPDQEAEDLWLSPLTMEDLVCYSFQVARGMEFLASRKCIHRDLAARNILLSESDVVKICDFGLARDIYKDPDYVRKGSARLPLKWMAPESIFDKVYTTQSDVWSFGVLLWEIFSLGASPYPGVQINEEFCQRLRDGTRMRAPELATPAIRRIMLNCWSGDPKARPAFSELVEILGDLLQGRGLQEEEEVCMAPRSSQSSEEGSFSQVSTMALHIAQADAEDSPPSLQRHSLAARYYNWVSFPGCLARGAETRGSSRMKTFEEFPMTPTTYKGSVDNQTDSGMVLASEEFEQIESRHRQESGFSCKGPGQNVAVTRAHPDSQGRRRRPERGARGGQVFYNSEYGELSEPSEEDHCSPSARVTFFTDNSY
How it was run: as §1

[6] = molecular target: YES/YES1 (Homo sapiens, UniProt P07947); details: single concentration of 1 μM; read-out: percent inhibition of YES/YES1
Sequence of YES/YES1 (P07947 whole entry): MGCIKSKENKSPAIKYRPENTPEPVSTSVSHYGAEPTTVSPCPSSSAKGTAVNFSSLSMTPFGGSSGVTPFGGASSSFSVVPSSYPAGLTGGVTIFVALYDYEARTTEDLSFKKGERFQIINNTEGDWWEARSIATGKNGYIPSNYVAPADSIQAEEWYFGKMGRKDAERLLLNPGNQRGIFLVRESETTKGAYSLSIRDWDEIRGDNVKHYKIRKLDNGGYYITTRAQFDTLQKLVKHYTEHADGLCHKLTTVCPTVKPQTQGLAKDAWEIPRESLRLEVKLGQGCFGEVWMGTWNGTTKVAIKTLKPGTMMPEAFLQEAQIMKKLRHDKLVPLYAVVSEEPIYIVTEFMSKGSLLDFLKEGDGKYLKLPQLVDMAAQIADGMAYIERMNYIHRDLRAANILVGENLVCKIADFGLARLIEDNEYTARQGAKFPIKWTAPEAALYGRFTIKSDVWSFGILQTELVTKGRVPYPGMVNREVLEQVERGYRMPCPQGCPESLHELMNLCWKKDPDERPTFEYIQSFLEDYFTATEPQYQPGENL
How it was run: as §1

[7] = molecular target: EPHA6 (Homo sapiens, UniProt Q9UF33); details: single concentration of 1 μM; read-out: percent inhibition of EPHA6
How it was run: as §1

[8] = molecular target: FGFR3 (Homo sapiens, UniProt P22607); details: single concentration of 1 μM; read-out: percent inhibition of FGFR3
Sequence of FGFR3 (P22607 23-806): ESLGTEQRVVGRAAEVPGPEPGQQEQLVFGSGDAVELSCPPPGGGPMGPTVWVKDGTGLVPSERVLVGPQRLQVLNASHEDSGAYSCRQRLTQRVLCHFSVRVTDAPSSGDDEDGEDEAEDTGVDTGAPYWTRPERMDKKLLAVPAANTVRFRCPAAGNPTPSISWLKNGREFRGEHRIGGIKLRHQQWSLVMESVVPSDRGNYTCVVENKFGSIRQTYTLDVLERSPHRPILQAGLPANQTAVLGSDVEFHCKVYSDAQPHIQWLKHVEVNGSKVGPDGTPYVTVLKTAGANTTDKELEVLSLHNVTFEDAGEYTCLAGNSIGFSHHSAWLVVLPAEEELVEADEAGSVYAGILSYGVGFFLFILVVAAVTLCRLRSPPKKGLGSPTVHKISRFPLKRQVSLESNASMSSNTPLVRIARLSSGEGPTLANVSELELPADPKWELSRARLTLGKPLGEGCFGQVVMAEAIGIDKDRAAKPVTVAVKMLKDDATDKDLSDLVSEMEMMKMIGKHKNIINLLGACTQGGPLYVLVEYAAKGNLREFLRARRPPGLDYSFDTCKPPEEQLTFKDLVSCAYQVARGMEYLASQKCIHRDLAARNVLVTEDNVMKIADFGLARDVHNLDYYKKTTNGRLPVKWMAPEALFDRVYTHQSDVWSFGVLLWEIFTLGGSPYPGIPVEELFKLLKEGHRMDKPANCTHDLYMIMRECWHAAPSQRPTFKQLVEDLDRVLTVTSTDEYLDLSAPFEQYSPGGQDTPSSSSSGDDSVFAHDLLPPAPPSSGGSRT
How it was run: as §1

[9] = molecular target: ABL2/ARG (Homo sapiens, UniProt P42684); details: single concentration of 1 μM; read-out: percent inhibition of ABL2/ARG
How it was run: as §1

[10] = molecular target: EPHA7 (Homo sapiens, UniProt Q15375); details: single concentration of 1 μM; read-out: percent inhibition of EPHA7
How it was run: as §1

[11] = molecular target: EPHA4 (Homo sapiens, UniProt P54764); details: single concentration of 1 μM; read-out: percent inhibition of EPHA4
How it was run: as §1

[12] = molecular target: EPHA2 (Homo sapiens, UniProt P29317); details: single concentration of 1 μM; read-out: percent inhibition of EPHA2
Sequence of EPHA2 (P29317 24-976): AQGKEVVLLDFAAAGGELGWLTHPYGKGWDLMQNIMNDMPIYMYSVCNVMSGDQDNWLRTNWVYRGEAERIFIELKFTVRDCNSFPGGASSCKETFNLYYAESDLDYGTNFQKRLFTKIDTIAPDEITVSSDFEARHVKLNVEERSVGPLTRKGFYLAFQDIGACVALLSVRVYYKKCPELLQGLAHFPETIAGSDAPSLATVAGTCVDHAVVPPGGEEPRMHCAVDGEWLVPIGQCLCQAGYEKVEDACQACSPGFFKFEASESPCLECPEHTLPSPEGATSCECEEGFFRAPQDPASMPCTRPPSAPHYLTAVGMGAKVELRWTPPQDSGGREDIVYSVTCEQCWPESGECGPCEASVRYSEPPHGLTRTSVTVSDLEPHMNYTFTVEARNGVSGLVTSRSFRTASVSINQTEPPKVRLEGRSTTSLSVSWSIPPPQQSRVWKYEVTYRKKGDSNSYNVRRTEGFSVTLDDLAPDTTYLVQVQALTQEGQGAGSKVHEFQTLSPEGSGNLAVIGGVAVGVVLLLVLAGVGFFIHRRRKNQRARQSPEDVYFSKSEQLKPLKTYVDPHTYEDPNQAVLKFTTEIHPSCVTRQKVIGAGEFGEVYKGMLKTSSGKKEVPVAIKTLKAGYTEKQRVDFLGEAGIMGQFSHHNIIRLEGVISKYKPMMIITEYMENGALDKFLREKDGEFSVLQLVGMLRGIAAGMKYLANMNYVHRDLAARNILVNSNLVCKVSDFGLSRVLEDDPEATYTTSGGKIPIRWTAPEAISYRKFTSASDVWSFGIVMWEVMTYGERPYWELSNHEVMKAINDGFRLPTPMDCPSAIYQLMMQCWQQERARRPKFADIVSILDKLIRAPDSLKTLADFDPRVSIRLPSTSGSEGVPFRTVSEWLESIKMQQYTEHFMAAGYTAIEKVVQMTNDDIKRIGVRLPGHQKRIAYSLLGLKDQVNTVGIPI
How it was run: as §1

[13] = molecular target: EPHA1 (Homo sapiens, UniProt P21709); details: single concentration of 1 μM; read-out: percent inhibition of EPHA1
How it was run: as §1

[14] = molecular target: P38b/MAPK11 (Homo sapiens, UniProt Q15759); details: single concentration of 1 μM; read-out: percent inhibition of P38b/MAPK11
Sequence of P38b/MAPK11 (Q15759 whole entry): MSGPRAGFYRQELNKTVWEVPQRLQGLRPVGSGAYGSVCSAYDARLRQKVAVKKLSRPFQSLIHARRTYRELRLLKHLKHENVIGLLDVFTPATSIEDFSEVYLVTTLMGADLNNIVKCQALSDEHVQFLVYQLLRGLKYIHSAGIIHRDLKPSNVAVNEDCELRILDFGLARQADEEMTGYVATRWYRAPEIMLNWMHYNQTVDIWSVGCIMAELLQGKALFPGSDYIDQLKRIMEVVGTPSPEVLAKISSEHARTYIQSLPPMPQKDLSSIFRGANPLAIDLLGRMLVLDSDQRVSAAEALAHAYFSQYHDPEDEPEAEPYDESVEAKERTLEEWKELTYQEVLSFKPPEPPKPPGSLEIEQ
How it was run: as §1

Measured: inhibition at 1 µM

Sequence of MYLK3 (Q32MK0 whole entry): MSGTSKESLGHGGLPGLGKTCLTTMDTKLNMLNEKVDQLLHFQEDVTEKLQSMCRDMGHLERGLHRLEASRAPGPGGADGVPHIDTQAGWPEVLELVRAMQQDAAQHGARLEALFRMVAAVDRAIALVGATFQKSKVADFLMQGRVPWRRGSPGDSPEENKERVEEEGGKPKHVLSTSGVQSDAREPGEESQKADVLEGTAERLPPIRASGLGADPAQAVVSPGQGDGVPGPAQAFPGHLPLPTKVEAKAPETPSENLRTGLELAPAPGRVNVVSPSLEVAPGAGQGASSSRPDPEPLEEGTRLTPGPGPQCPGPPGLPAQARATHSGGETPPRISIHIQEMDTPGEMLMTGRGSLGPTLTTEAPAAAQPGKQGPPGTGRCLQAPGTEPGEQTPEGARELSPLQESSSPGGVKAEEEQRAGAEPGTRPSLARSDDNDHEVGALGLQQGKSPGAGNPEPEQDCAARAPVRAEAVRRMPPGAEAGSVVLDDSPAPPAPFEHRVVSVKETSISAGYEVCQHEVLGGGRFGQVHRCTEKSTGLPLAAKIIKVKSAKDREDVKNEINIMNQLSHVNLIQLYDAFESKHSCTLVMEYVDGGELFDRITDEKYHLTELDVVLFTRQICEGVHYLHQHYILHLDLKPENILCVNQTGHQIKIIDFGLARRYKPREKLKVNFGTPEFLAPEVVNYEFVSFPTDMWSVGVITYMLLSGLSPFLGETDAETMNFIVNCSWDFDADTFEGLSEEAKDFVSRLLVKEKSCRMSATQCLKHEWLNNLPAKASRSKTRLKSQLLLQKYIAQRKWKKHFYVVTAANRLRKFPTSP

Cc1ccc(Nc2ncc3cc(-c4cc(NC(=O)c5cccc(C(F)(F)F)c5)ccc4C)ncc3n2)cn1 [Compound No. 4, N-(4-methyl-3-(2-((6-methylpyridin-3-yl)amino)pyrido[3,4-d]pyrimidin-6-yl)phenyl)-3-(trifluoromethyl)benzamide]
≥ 70%: all assays above
